Like-named read-outs stand apart in the source and are kept apart here.
Legend:
[1] = tested on: FYN, SRC, YES; assay: ActivX kinase probe assay (human PBMC); type: binding
[2] = biological target: RSK2 domain2 (Homo sapiens (Human), UniProt P51812); assay: ActivX kinase probe assay (human PBMC); type: binding; details: RSK2 domain2, read-out: percent inhibition
[3] = tested on: KSR1, KSR2; assay: ActivX kinase probe assay (human PBMC); type: binding
[4] = biological target: AKT1 (Homo sapiens (Human), UniProt P31749); assay: ActivX kinase probe assay (human PBMC); type: binding; details: AKT1, read-out: percent inhibition
[5] = biological target: SRC (Homo sapiens (Human), UniProt P12931); assay: ActivX kinase probe assay (human PBMC); type: binding; details: SRC, read-out: percent inhibition
SRC, sequence (P12931 whole entry, looked up): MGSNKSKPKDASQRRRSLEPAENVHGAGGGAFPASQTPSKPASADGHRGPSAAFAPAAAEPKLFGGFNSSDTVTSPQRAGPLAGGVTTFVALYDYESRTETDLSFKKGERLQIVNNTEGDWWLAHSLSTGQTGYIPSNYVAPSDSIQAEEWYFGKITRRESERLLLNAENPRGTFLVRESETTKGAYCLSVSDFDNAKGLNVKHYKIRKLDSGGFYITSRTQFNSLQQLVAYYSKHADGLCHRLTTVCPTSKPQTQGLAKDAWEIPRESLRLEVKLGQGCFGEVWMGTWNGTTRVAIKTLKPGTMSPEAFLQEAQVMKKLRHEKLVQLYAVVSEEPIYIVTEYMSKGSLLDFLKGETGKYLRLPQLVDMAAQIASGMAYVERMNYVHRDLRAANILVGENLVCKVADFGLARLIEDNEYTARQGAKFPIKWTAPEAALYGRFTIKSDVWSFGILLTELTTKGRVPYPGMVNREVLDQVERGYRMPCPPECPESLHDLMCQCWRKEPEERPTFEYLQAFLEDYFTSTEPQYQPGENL

[6] = biological target: CDK2 (Homo sapiens (Human), UniProt P24941); assay: ActivX kinase probe assay (human PBMC); type: binding; details: CDK2, read-out: percent inhibition
[7] = biological target: PIP4K2C (Homo sapiens (Human), UniProt Q8TBX8); assay: ActivX kinase probe assay (human PBMC); type: binding; details: read-out: percent inhibition
PIP4K2C, sequence (Q8TBX8 whole entry): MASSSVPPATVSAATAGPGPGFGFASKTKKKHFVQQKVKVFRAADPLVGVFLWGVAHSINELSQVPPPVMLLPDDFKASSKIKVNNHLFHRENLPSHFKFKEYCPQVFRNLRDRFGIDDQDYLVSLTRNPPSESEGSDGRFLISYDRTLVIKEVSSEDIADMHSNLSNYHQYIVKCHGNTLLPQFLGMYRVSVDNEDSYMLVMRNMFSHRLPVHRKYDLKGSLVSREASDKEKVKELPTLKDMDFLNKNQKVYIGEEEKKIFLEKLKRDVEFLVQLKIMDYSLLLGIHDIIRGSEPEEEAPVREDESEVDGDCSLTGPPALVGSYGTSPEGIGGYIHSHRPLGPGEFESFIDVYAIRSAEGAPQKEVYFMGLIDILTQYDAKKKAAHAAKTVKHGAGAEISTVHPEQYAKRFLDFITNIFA

[8] = biological target: PIP5K3 (Homo sapiens (Human), UniProt Q9Y2I7); assay: ActivX kinase probe assay (human PBMC); type: binding; details: PIP5K3, read-out: percent inhibition
[9] = biological target: IRE1 (Homo sapiens (Human), UniProt O75460); assay: ActivX kinase probe assay (human PBMC); type: binding; details: IRE1, read-out: percent inhibition
[10] = biological target: DGKA (Homo sapiens (Human), UniProt P23743); assay: ActivX kinase probe assay (human PBMC); type: binding; details: DGKA, read-out: percent inhibition
[11] = biological target: TAO2 (Homo sapiens (Human), UniProt Q9UL54); assay: ActivX kinase probe assay (human PBMC); type: binding; details: TAO2, read-out: percent inhibition
TAO2, sequence (Q9UL54 whole entry): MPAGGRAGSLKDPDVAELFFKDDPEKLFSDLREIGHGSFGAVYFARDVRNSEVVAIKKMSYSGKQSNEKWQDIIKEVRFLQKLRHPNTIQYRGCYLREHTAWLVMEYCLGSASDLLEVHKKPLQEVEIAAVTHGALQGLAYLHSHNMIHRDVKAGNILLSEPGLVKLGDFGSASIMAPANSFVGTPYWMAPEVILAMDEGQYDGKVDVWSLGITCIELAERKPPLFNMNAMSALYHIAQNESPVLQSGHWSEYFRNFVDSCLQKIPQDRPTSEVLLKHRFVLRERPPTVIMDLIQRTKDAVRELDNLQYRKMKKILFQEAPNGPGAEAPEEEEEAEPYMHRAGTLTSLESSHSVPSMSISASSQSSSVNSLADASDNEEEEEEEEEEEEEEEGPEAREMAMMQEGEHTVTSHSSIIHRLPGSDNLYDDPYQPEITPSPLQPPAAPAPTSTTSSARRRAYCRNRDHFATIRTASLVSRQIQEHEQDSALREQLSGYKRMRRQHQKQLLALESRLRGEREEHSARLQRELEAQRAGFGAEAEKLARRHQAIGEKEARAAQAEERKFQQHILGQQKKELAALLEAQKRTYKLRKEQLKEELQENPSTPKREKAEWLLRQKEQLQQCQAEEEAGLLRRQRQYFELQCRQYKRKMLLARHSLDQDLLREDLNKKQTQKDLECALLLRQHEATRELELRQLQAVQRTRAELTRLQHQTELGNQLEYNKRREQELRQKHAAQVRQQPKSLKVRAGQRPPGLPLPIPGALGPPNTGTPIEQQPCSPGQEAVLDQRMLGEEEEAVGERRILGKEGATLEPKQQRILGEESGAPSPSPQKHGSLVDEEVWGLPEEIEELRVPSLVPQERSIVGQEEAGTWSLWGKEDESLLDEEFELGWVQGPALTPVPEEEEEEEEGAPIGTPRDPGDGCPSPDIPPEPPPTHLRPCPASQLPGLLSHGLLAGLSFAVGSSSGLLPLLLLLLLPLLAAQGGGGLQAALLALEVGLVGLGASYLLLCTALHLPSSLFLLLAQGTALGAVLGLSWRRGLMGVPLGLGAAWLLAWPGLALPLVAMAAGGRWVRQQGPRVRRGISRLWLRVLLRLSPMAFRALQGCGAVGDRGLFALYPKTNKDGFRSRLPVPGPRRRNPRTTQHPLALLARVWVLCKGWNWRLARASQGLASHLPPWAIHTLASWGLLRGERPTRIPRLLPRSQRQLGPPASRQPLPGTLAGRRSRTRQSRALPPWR

[12] = biological target: CaMK1a (Homo sapiens (Human), UniProt Q14012); assay: ActivX kinase probe assay (human PBMC); type: binding; details: CaMK1a, read-out: percent inhibition
[13] = biological target: PIP4K2A (Homo sapiens (Human), UniProt P48426); assay: ActivX kinase probe assay (human PBMC); type: binding; details: PIP4K2A, read-out: percent inhibition
PIP4K2A, sequence (P48426 whole entry): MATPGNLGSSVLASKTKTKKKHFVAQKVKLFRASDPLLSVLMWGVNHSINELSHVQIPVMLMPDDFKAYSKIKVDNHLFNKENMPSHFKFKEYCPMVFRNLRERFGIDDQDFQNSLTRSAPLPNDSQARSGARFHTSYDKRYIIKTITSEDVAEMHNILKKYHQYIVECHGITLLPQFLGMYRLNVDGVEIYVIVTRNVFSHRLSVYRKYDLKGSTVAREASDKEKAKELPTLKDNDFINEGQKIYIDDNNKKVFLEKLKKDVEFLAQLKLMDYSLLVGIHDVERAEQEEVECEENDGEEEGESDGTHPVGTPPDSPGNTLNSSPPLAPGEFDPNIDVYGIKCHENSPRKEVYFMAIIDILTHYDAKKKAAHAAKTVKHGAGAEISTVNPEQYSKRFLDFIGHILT

[14] = tested on: p38d, p38g; assay: ActivX kinase probe assay (human PBMC); type: binding
[15] = biological target: NuaK2 (Homo sapiens (Human), UniProt Q9H093); assay: ActivX kinase probe assay (human PBMC); type: binding; details: NuaK2, read-out: percent inhibition
NuaK2, sequence (Q9H093 whole entry): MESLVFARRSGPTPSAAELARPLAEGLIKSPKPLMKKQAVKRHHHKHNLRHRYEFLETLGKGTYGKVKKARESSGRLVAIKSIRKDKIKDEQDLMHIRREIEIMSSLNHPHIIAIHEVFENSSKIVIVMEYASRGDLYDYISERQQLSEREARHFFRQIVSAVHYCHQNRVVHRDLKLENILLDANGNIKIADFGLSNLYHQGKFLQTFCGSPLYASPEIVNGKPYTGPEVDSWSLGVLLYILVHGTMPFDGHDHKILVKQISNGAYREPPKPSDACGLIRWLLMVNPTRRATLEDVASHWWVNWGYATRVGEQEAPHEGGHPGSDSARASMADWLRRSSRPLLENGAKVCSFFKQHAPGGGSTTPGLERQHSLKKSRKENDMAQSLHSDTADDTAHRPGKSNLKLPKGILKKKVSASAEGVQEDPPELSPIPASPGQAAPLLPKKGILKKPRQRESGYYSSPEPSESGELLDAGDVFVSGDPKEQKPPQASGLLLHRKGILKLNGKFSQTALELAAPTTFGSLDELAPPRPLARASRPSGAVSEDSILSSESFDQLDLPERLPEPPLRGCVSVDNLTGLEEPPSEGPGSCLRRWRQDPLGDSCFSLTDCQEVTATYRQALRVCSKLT

[16] = biological target: GCN2 (Homo sapiens (Human), UniProt Q9P2K8); assay: ActivX kinase probe assay (human PBMC); type: binding; details: GCN2, read-out: percent inhibition
[17] = biological target: mutant G2019S LRRK2 (Homo sapiens (Human), UniProt Q5S007, G2019S); assay: LRRK2 Lantha Screen kinase assay, mutant enzyme; type: biochemical; details: geometric mean of 2-5 determinations unless otherwise indicated (a: >=6 determinations; b: single determination)
[18] = biological target: RSKL1 domain1 (Homo sapiens (Human), UniProt Q96S38); assay: ActivX kinase probe assay (human PBMC); type: binding; details: RSKL1 domain1, read-out: percent inhibition
[19] = biological target: PIK3CB (Homo sapiens (Human), UniProt P42338); assay: ActivX kinase probe assay (human PBMC); type: binding; details: PIK3CB, read-out: percent inhibition
[20] = biological target: CHK2 (Homo sapiens (Human), UniProt O96017); assay: ActivX kinase probe assay (human PBMC); type: binding; details: CHK2, read-out: percent inhibition
[21] = biological target: IRAK4 (Homo sapiens (Human), UniProt Q9NWZ3); assay: ActivX kinase probe assay (human PBMC); type: binding; details: IRAK4, read-out: percent inhibition
[22] = biological target: RSK2 domain1 (Homo sapiens (Human), UniProt P51812); assay: ActivX kinase probe assay (human PBMC); type: binding; details: RSK2 domain1, read-out: percent inhibition
[23] = biological target: MAP2K6 (Homo sapiens (Human), UniProt P52564); assay: ActivX kinase probe assay (human PBMC); type: binding; details: MAP2K6, read-out: percent inhibition
MAP2K6, sequence (P52564 whole entry): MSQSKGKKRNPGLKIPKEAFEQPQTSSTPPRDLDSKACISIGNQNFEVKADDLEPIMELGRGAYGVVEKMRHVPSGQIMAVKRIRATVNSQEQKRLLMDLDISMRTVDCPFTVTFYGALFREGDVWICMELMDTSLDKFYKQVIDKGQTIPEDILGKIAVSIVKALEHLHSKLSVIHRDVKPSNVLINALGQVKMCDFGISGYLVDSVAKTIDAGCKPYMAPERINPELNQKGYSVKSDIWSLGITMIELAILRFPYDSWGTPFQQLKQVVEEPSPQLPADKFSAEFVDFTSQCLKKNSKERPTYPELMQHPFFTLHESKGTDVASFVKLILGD

[24] = biological target: BRAF (Homo sapiens (Human), UniProt P15056); assay: ActivX kinase probe assay (human PBMC); type: binding; details: BRAF, read-out: percent inhibition
[25] = tested on: IKKe, TBK1; assay: ActivX kinase probe assay (human PBMC); type: binding
[26] = tested on: RSK1, RSK2, RSK3 domain1; assay: ActivX kinase probe assay (human PBMC); type: binding
[27] = biological target: SLK (Homo sapiens (Human), UniProt Q9H2G2); assay: ActivX kinase probe assay (human PBMC); type: binding; details: SLK, read-out: percent inhibition
SLK, sequence (Q9H2G2 whole entry): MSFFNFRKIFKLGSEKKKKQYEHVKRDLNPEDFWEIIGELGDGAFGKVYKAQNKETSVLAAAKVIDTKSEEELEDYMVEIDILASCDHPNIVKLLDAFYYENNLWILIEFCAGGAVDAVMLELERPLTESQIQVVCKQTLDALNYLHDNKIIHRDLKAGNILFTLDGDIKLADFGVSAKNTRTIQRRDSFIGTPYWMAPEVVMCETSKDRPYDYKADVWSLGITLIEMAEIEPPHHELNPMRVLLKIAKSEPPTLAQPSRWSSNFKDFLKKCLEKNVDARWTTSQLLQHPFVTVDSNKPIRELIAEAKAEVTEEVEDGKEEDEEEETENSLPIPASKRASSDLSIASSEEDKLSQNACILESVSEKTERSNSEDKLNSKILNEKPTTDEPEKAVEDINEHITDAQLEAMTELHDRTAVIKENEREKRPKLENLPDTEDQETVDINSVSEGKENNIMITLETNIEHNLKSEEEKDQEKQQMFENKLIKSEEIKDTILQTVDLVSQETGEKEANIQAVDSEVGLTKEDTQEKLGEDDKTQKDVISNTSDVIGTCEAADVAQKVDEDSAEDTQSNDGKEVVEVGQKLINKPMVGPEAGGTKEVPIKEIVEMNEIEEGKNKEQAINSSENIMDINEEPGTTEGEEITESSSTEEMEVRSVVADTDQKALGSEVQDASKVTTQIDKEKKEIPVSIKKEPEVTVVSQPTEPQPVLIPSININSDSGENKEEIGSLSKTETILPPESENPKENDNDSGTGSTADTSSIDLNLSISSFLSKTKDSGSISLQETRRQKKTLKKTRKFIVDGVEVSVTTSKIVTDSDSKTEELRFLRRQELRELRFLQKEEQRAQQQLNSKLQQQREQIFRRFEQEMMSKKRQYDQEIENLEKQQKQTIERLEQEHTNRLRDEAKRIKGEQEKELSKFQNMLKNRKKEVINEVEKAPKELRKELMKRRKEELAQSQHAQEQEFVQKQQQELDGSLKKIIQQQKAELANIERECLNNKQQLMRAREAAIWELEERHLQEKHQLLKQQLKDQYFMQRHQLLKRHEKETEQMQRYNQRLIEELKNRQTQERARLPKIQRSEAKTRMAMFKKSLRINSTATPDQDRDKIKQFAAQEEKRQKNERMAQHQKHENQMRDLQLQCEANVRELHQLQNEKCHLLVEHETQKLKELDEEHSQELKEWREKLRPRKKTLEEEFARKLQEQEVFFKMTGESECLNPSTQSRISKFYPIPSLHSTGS

[28] = biological target: PRPK (Homo sapiens (Human), UniProt Q96S44); assay: ActivX kinase probe assay (human PBMC); type: binding; details: read-out: percent inhibition
PRPK, sequence (Q96S44 whole entry): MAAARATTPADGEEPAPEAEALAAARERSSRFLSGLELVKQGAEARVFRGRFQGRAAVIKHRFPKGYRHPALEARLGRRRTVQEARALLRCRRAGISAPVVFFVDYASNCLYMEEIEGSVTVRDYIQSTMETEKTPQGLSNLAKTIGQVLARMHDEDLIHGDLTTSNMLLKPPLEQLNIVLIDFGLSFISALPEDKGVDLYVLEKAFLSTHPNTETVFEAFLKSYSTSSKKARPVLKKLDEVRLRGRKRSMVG
Experimental: Certain of the compounds of the present invention were assessed for kinase selectivity using a commercially available ActiveX targeted kinase probe in which the tissue employed was human peripheral blood mononuclear cells (PBMC). The test compounds were provided to ActivX Biosciences, Inc., 11025 North Torrey Pines Road, Suite 120; LaJolla, Calif., USA 92037. The compounds were run in the ActivX proprietary kinase assay and results were obtained at compound test concentrations of 1 μM (columns 2, 4 and 6) and 0.1 μM (columns 3, 5 and 7). The results as percent inhibition obtained for the compounds of Examples 1, 4 and 217 are provided below in Table 3.

[29] = biological target: MARK3 (Homo sapiens (Human), UniProt P27448); assay: ActivX kinase probe assay (human PBMC); type: binding; details: MARK3, read-out: percent inhibition
[30] = biological target: PIK3CG (Homo sapiens (Human), UniProt P48736); assay: ActivX kinase probe assay (human PBMC); type: binding; details: PIK3CG, read-out: percent inhibition
[31] = tested on: TAO1, TAO3; assay: ActivX kinase probe assay (human PBMC); type: binding

## Cn1cc(-c2c[nH]c3ncnc(N4CCOCC4)c23)cn1 [Example 1, 5-(1-Methyl-1H-pyrazol-4-yl)-4-(morpholin-4-yl)-7H-pyrrolo[2,3-d]pyrimidine]
[1]; 0.1 μM
  percent inhibition: −24.1%
[1]; 1 μM
  percent inhibition: −56.3%
[2]; 0.1 μM
  inhibition at 0.1 µM: 0.6%
[2]; 1 μM
  inhibition at 1 µM: 9.1%
[3]; 0.1 μM
  percent inhibition: 1.5%
[3]; 1 μM
  percent inhibition: −14%
[4]; 0.1 μM
  inhibition at 0.1 µM: 11.3%
[4]; 1 μM
  inhibition at 1 µM: 18.8%
[5]; 0.1 μM
  inhibition at 0.1 µM: 1.5%
[5]; 1 μM
  inhibition at 1 µM: 9.7%
[6]; 0.1 μM
  inhibition at 0.1 µM: -12.1%
[6]; 1 μM
  inhibition at 1 µM: 9.5%
[7]; PIP4K2C (first line of two)
  inhibition at 0.1 µM: 1.4%
  inhibition at 1 µM: -1.4%
[7]; PIP4K2C (second line of two)
  inhibition at 0.1 µM: -48%
  inhibition at 1 µM: 0.9%
[8]; 0.1 μM
  inhibition at 0.1 µM: 1.9%
[8]; 1 μM
  inhibition at 1 µM: 15%
[9]; 0.1 μM
  inhibition at 0.1 µM: -1.3%
[9]; 1 μM
  inhibition at 1 µM: -8%
[10]; 0.1 μM
  inhibition at 0.1 µM: -21%
[10]; 1 μM
  inhibition at 1 µM: -16.6%
[11]; 0.1 μM
  inhibition at 0.1 µM: -6.3%
[11]; 1 μM
  inhibition at 1 µM: -24.2%
[12]; 0.1 μM
  inhibition at 0.1 µM: 2%
[12]; 1 μM
  inhibition at 1 µM: 6.3%
[13]; 0.1 μM
  inhibition at 0.1 µM: 12.1%
[13]; 1 μM
  inhibition at 1 µM: 6.8%
[14]; 0.1 μM
  percent inhibition: −37.3%
[14]; 1 μM
  percent inhibition: −24%
[15]; 0.1 μM
  inhibition at 0.1 µM: 3.6%
[15]; 1 μM
  inhibition at 1 µM: 8.9%
[16]; 0.1 μM
  inhibition at 0.1 µM: 0.1%
[16]; 1 μM
  inhibition at 1 µM: -25.1%
[17]
  IC50: 36 nM
[18]; 0.1 μM
  inhibition at 0.1 µM: 5.5%
[18]; 1 μM
  inhibition at 1 µM: -0.2%
[19]; 0.1 μM
  inhibition at 0.1 µM: -2.6%
[19]; 1 μM
  inhibition at 1 µM: -29.8%
[20]; 0.1 μM
  inhibition at 0.1 µM: 0.9%
[20]; 1 μM
  inhibition at 1 µM: 17.7%
[21]; 0.1 μM
  inhibition at 0.1 µM: 17.7%
[21]; 1 μM
  inhibition at 1 µM: 34.7%
[22]; 0.1 μM
  inhibition at 0.1 µM: -6.8%
[22]; 1 μM
  inhibition at 1 µM: 5.6%
[23]; 0.1 μM
  inhibition at 0.1 µM: 17.5%
[23]; 1 μM
  inhibition at 1 µM: 19%
[24]; 0.1 μM
  inhibition at 0.1 µM: -6.5%
[24]; 1 μM
  inhibition at 1 µM: -51.5%
[25]; 0.1 μM
  percent inhibition: 1.5%
[25]; 1 μM
  percent inhibition: 23.7%
[26]; 0.1 μM
  percent inhibition: 3%
[26]; 1 μM
  percent inhibition: 18.7%
[27]; 0.1 μM
  inhibition at 0.1 µM: 22.9%
[27]; 1 μM
  inhibition at 1 µM: 50.6%
[28]; 0.1 μM
  inhibition at 0.1 µM: -3.4%
[28]; 1 μM
  inhibition at 1 µM: -13.8%
[29]; 0.1 μM
  inhibition at 0.1 µM: 1%
[29]; 1 μM
  inhibition at 1 µM: 29.1%
[30]; 0.1 μM
  inhibition at 0.1 µM: -18.6%
[30]; 1 μM
  inhibition at 1 µM: -62.9%
[31]; 0.1 μM
  percent inhibition: −24%
[31]; 1 μM
  percent inhibition: −14.9%
